Data published in patent US6635621B1, “Cysteine protease inhibitors” (Naeja Pharmaceutical Inc., priority 1999, dated 2003).

What was measured:
rat cathepsin B = rat cathepsin B (Rattus norvegicus, UniProt P00787); experiment: In vitro assay for inhibition of cathepsin B; format: biochemical; conditions: r rat cathepsin B, substrate N-CBZ-Phe-Arg-AMC, pH 5.1, 10 min incubation at room temperature
Description: In Vitro Assay Procedure for Cathepsin B
The compounds of formula I were tested for inhibition of cathepsin B using the known method (A. J. Barret et al., Biochem. J. 1982, 201, 189-198). To a 170 μl of enzyme-buffer mixture (enzyme: r rat cathepsin B, diluted to give approximate 10 F units/min, buffer: 56 mM sodium acetate, 1.124 mM EDTA, 10 mM DTT, pH 5.1) a 10 μL of inhibitor (dissolved in DMSO) was added. After 10 min of incubation at room temperature, a 20 μl of 5 mM substrate (N-CBZ-Phe-Arg-AMC, dissolved in DMSO) was added to initiate reaction. Reading is followed up for 10 min at the fluoroscan reader (excitation at 380 nm emission at 460 nm).
(§1) A plot of percentage of inhibition vs inhibitor concentration is obtained, and IC50 is determined using a linear regression calculations (concentration of inhibitor which will give 50% inhibition).

rat cathepsin L = rat cathepsin L (Rattus norvegicus, UniProt P07154); experiment: In vitro assay for inhibition of cathepsin L; format: biochemical; conditions: r rat cathepsin L, substrate N-CBZ-Phe-Arg-AMC, pH 5.0, 10 min incubation at room temperature
Description: In Vitro Assay Procedure for Cathepsin L
To a 170 μl of enzyme-buffer mixture (enzyme: r rat cathepsin L, diluted to give approximate 15 F units/min, buffer: 58.8 mM sodium citrate, 1.18 mM EDTA, 235 mM sodium chloride, 5 mM […], pH 5.0) a 10 μL of inhibitor (dissolved in DMSO) was added. After 10 min of incubation at room temperature, a 20 μl of 1 mM substrate (N-CBZ-Phe-Arg-AMC, dissolved in DMSO) was added to initiate reaction. Reading is followed up for 10 min at the fluoroscan reader (excitation at 380 nm emission at 460 nm).
as §1

cathepsin K = biological target: T1, cathepsin K (Homo sapiens, UniProt P43235); experiment: In vitro assay for inhibition of cathepsin K; format: biochemical; conditions: r cathepsin K, substrate N-CBZ-Phe-Arg-AMC, pH 5.5, 10 min incubation at room temperature
T1 sequence (P43235 115-329): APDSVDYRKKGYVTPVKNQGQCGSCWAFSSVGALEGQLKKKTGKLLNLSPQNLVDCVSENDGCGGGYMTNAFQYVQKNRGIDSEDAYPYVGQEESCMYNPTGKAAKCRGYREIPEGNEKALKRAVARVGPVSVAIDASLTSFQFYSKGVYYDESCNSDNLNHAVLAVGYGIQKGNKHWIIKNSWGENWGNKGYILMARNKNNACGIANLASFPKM
Description: In Vitro Assay Procedure for Cathepsin K
(§2) To a 170 μl of enzyme-buffer mixture (enzyme: r cathepsin K, diluted to give approximate 30 F units/min, buffer: 100 mM sodium acetate, 5 mM EDTA, 20 mM L-cysteine, 0.01% Brij, pH 5.5) a 10 μL of inhibitor (dissolved in DMSO) was added. After 10 min of incubation at room temperature, a 20 μl of 2.7 mM substrate (N-CBZ-Phe-Arg-AMC, dissolved in DMSO) was added to initiate reaction. Reading is followed up for 10 min at the fluoroscan II plate reader (excitation at 380 nm emission at 460 nm).
as §1

cathepsin S = cathepsin S (Homo sapiens, UniProt P25774); experiment: In vitro assay for inhibition of cathepsin S; format: biochemical; conditions: r cathepsin S, substrate N-CBZ-Val-Val-Arg-AMC, pH 6.5, 10 min incubation at room temperature
Description: In Vitro Assay Procedure for Cathepsin S
as §2, with “S,” for “K,”, “phosphate, 1 mM EDTA,” for “acetate,”, “DTT,” for “EDTA, 20 mM L-cysteine,”, “6.5)” for “5.5)”, “1.2” for “2.7”, “(N-CBZ-Val-Val-Arg-AMC,” for “(N-CBZ-Phe-Arg-AMC,”
as §1

Sequence of rat cathepsin L (P07154 114-334): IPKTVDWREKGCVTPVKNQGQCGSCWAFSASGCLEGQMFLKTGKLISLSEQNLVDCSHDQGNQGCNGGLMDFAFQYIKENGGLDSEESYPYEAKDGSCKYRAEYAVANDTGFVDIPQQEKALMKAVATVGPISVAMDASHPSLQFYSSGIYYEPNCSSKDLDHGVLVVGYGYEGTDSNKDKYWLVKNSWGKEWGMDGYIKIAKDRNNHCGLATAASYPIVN
Sequence of rat cathepsin B (P00787 80-333): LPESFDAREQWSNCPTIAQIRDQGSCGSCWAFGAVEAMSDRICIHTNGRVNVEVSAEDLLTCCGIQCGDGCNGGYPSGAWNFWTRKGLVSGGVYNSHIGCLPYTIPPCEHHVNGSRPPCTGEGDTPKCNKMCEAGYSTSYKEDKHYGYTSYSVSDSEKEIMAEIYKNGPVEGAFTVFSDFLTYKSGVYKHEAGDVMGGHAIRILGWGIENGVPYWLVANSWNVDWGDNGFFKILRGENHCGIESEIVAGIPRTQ
Sequence of cathepsin S (P25774 115-331, species assumed): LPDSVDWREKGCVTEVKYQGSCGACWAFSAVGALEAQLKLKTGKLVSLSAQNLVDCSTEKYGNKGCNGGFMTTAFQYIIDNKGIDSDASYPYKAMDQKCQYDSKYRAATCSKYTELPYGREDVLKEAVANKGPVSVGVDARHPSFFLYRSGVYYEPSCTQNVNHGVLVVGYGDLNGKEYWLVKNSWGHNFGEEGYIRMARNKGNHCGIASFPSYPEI

| SMILES | IC50 (rat cathepsin B) [µM] | IC50 (rat cathepsin L) [µM] | IC50 (cathepsin K) [µM] | IC50 (cathepsin S) [µM] | melting point [°C] |
| --- | --- | --- | --- | --- | --- |
| CC(C)C[C@H](NC(=O)OCc1ccccc1)C(=O)NC(C(N)=O)C(O)O (stereo partly drawn) [Example 11, 2-(2S-2-Benzyloxycarbonylamino-2-isopropylmethyl-acetamido)-3,3-dihydroxy-propionamide] | 2.4 | 0.11 | 0.014 | 0.015 | 86 to 90 |
| CC(C)C[C@H](NC(=O)OCc1ccccc1)C(=O)N/C(=C\N1CCN(C)CC1)C(N)=O [Example 17, 2-(2S-2-Benzyloxycarbonylamino-2-isopropylmethyl-acetamido)-3-(4-methylpiperazino)-acrylamide] | 1.9 | 0.23 | 0.019 | 0.18 | 93.5 to 95 |
| CC(C)C[C@H](NC(=O)OCc1ccccc1)C(=O)N/C(=C\N1CCCCC1)C(N)=O [Example 9, 2-(2S-2-Benzyloxycarbonylamino-2-isopropylmethyl-acetamido)-3-piperidino-acrylamide] | 0.89 | 0.062 | 0.014 | 0.05 | 99 to 103 |
| CC(C)C[C@H](NC(=O)OCc1ccccc1)C(=O)N/C(=C/O)C(N)=O [Example 15, 2-(2S-2-Benzyloxycarbonylamino-2-isopropylmethyl-acetamido)-3-hydroxy-acrylamide] | 9.5 | 0.17 | 0.018 | 0.075 | 105 to 115 |
| CC(C)C[C@H](NC(=O)OCc1ccccc1)C(=O)NC(=CN)C(N)=O [Example 1, 2-(2S-2-Benzyloxycarbonylamino-2-isopropylmethyl-acetamido)-3-amino-acrylamide] | 4.35 | 0.094 | 0.011 | 0.069 | 80 to 90 |
| CC(C)C[C@H](NC(=O)OCc1ccccc1)C(=O)N/C(=C\N1CCC(NC(=O)OC(C)(C)C)C1)C(N)=O (stereo partly drawn) [Example 18, 2-(2S-2-Benzyloxycarbonylamino-2-isopropylmethyl-acetamido)-3-(3-tert-butoxycarbonylamino-pyrrolidino)-acrylamide] | 1.9 | 0.12 | 0.0096 | 0.039 | 140 to 142 |
| CC(C)C[C@H](NC(=O)OCc1ccccc1)C(=O)NC(=CNc1ccccc1)C(N)=O [Example 8, 2-(2S-2-Benzyloxycarbonylamino-2-isoproplmethyl-acetamido)-3-phenylamino-acrylamide] | 37.1 | 2.36 | 0.33 | 6.9 | 199 to 200 |
| NC=C(NC(=O)[C@H](CC1CCCCC1)NC(=O)OCc1ccccc1)C(N)=O [Example 2, 2-(2S-2-Benzyloxycarbonylamino-2-cyclohexylmethyl-acetamido)-3-amino-acrylamide] | 1.17 | 0.072 | 1.78 | 0.026 | 80 to 85 |
| CC(=O)N/C=C(/NC(=O)[C@H](CC1CCCCC1)NC(=O)OCc1ccccc1)C(N)=O [Example 19a, (2E)-(2S-2-Benzyloxycarbonylamino-2-cyclohexymethyl-acetamido)-3-acetamido-acrylamide] | > 58 | > 58 | > 58 | 1.86 | 140 to 142 |
| NC=C(NC(=O)[C@H](Cc1ccccc1)NC(=O)CCc1ccccc1)C(N)=O [Example 4, 2-[2S-2-(3-Phenylpropionoyl)amino-2-benzyl-acetamido]-3-amino-acrylamide] | 2.63 | 0.015 | 1.2 | 0.0087 | 75 to 80 |
| CC(C)C[C@H](NC(=O)OCc1ccccc1)C(=O)NC(=CN1CCOCC1)C(N)=O [Example 6, 2-(2S-2-Benzyloxycarbonylamino-2-isopropylmethyl-acetamido)-3-(morpholin-4-yl)-acrylamide] | 0.37 | 0.075 | 0.003 | 0.05 | 120 to 130 |
| NC(=O)C(NC(=O)[C@H](Cc1ccccc1)NC(=O)CCc1ccccc1)C(O)O (stereo partly drawn) [Example 14, 2-[2S-2-(3-Phenylpropionoylamino)-2-benzyl-acetamido]-3,3-dihydroxy-propionamide] | 0.98 | 0.004 | 1.13 | 0.004 | 105 to 110 |
| CC(C)C[C@H](NC(=O)OCc1ccccc1)C(=O)NC(=CNCc1ccccc1)C(N)=O [Example 5, 2-(2S-2-Benzyloxycarbonylamino-2-isopropylmethyl-acetamido)-3-benzylamino-acrylamide] | 2.28 | 0.064 | 0.0031 | 0.061 | 115 to 120 |
| CC(C)C[C@H](NC(=O)OCc1ccccc1)C(=O)NC(=CNCCO)C(N)=O [Example 7, 2-(2S-2-Benzyloxycarbonylamnino-2-isopropylmnethyl-acetamido)-3-(2-hydroxyethylamnino)-acrylamide] | 1.96 | 0.23 | 0.012 | 0.18 | 89 to 92 |
